Source: patent US9127078B2, “Methods and compositions using splicing regulatory proteins involved in tumor suppression” (The Trustees of the University of Pennsylvania, priority 2008, dated 2015)

Tested on: PKC-neg-40B-Luc minigene in 293T cells
Test: Luciferase splicing reporter screen of the LOPAC 1280 library
Format: cell-based
Conditions: for luciferase readings versus background reading: LOPAC screen, result in words; for Avg Med norm: luciferase fold-increase over the Average Median norm for each plate exclusive of Esrp1 control wells; for Avg Med norm / Avg DMSO Norm: 293T reporter cells, 24 hours; for Avg DMSO Norm: luciferase fold-increase over the Average control (DMSO) norm
Procedure: Briefly, compounds from the LOPAC™ library were dissolved in DMSO. 293T cells (which express predominantly FGFR2-IIIc) which stably express the PKC-neg-40B-Luc minigene, as described in Example 1, were incubated with the compounds or with a DMSO control for 24 hours. After the incubation period, BriteLite luciferase readout reagent was added to each well and the plates were read on an Analyst HT multimode plate reader (Molecular Devices). As positive controls, we also added a cDNA encoding the mouse Esrp1 protein to individual wells on each plate.
The results were then ranked in order from largest fold change over background down to the DMSO blank.

Compound: CCNC(=O)[C@H]1O[C@@H](n2cnc3c(NCc4ccccc4)ncnc32)[C@H](O)[C@@H]1O [N6-Benzyl-5′-N-ethylcarboxamidoadenosine]
- luciferase readings versus background reading: significantly over the background reading
- Avg Med norm: 1.822 fold
- Avg DMSO Norm: 1.953 fold

Compound: CC(C)NCC(O)c1ccc(O)c(O)c1.Cl (racemic) [(±)-Isoproterenol hydrochloride]
- Avg Med norm: 1.713 fold
- Avg DMSO Norm: 1.663 fold

Compound: COc1cccc(NC(=O)/C=C/c2ccc(Cl)cc2)c1 [SB-366791]
- Avg Med norm: 1.665 fold
- Avg DMSO Norm: 1.795 fold

Compound: Clc1ccccc1C(c1ccccc1)(c1ccccc1)n1ccnc1 [Clotrimazole, 1-(o-Chlorotrityl)-imidazole]
- Avg Med norm: 1.671 fold
- Avg DMSO Norm: 1.792 fold

Compound: COc1cc([C@@H]2c3cc4c(cc3[C@H](O)[C@H]3COC(=O)[C@H]23)OCO4)cc(OC)c1OC [Podophyllotoxin]
- luciferase readings versus background reading: significantly over the background reading
- Avg Med norm: 2.036 fold
- Avg DMSO Norm: 1.985 fold

Compound: NC(N)=NC(=O)c1nc(Cl)c(N2CCCCCC2)nc1N [5-(N,N-hexamethylene)amiloride]
- Avg Med norm: 1.643 fold
- Avg DMSO Norm: 1.762 fold

Compound: CC(C)NC[C@H](O)c1ccc(O)c(O)c1.O=C(O)C(O)C(O)C(=O)O [R(−)-Isoproterenol(+)-bitartrate]
- luciferase readings versus background reading: significantly over the background reading
- Avg Med norm: 1.996 fold
- Avg DMSO Norm: 1.943 fold

Compound: Cc1ccc(O)c(N=Nc2ccccc2)n1 [SIB 1757, 6-Methyl-2-(phenylazo)-3-pyridinol]
- luciferase readings versus background reading: significantly over the background reading
- Avg Med norm: 2.598 fold
- Avg DMSO Norm: 2.803 fold

Compound: COc1cccc(-c2cc(=O)c3ccccc3o2)c1N [PD 98,059, 2-(2-Amino-3-methoxyphenyl)-4H-1-benzopyran-4-one]
- Avg Med norm: 1.783 fold
- Avg DMSO Norm: 1.923 fold

Compound: CCCCCCCCCCCCCC(=O)O[C@@H]1[C@@H](C)[C@@]2(O)[C@@H](C=C(CO)C[C@]3(O)C(=O)C(C)=C[C@@H]23)[C@@H]2C(C)(C)[C@]12OC(C)=O [Phorbol 12-myristate 13-acetate]
- luciferase readings versus background reading: significantly over the background reading
- Avg Med norm: 3.825 fold
- Avg DMSO Norm: 4.122 fold

Compound: OC[C@H]1O[C@@H](n2cnc3c(Nc4ccccc4)ncnc32)[C@H](O)[C@@H]1O [N6-Phenyladenosine]
- Avg Med norm: 1.942 fold
- Avg DMSO Norm: 2.095 fold

Compound: CNCC(O)c1ccc(O)c(O)c1.Cl (racemic) [(±)-Epinephrine hydrochloride]
- Avg Med norm: 1.714 fold
- Avg DMSO Norm: 1.674 fold

Compound: CNC[C@H](O)c1ccc(O)c(O)c1.O=C(O)C(O)C(O)C(=O)O [(−)-Epinephrine bitartrate]
- Avg Med norm: 1.696 fold
- Avg DMSO Norm: 1.654 fold

Compound: C[C@H]1C[C@H]2[C@@H]3CCC4=CC(=O)C=C[C@]4(C)[C@@]3(Cl)[C@@H](O)C[C@]2(C)[C@@]1(O)C(=O)CO [Beclomethasone, 9alpha-Chloro-16beta-methyl-1,4-pregnadiene-11beta,17alpha,-21triol-3,20-dione]
- luciferase readings versus background reading: significantly over the background reading
- Avg Med norm: 1.861 fold
- Avg DMSO Norm: 1.996 fold
